The test system of assay [1] is Human RSV-A (“Long” strain). In words: RSV-A assay (CPE, ATPlite readout in Hep-2 cells). The format is cell-based. As to conditions: Hep-2 cells, MOI 0.1, 5-day incubation, ATPlite, read-out: Human RSV-A (“Long” strain) EC50. From the text:
Hep-2 cells, (originally derived from tumors grown in irradiated-cortisonised weanling rats that had been injected with epidermoid carcinoma tissue from a person's larynx, but later found to be indistinguishable from HeLa cells by PCR DNA analysis), were used for the culturing of genotype A, “Long” strain RSV. Flasks were inoculated with RSV and viral stocks were collected once cytopathic effect (CPE) was greater than 90%. Viral stocks in 25% sucrose media were snap frozen using liquid nitrogen to increase viral stability. Viral stock titers were quantified by tissue culture infectious dose 50% (TCID50) using 8,000 cells per well and 3-fold viral dilutions across a 96-well plate, cultured for 4 days. Viral stock titers were also quantified by a plaque forming unit assay, as described elsewhere.
Following extensive parameter testing, the final assay is run as follows: Hep-2 cells are seeded into the inner 60 wells of a 96-well plate at 8,000 cells per well in a volume of 50 μL using Growth Media (DMEM without phenol red, 1% L-Glut, 1% Penn/Strep, 1% nonessential amino acids, 10% heat-inactivated FBS). 2-fold serial dilutions of control and test compounds are added to the wells in duplicate in a total volume of 25 μL. Viral stock is then added to the wells at a multiplicity of infection (MOI) of 0.1 in a volume of 25 μL, bringing the total volume of each well to 100 μL. The MOI is calculated using the PFU/mL, or TCID50 if unavailable. Each 96-well plate has a control column of 6 wells with cells and virus but no compound (negative control, max CPE), a column with cells but no compound or virus (positive control, minimum CPE), and a column with no cells or virus or compound (background plate/reagent control). The control wells with cells but no virus are given an additional […], of growth media containing an equal quantity of sucrose as those wells receiving the viral stock in order to keep consistent in media and volume conditions. The outer wells of the plate are filled with 125 μL of moat media (DMEM, 1% Penn/Strep) to act as a thermal and evaporative moat around the test wells. Following a 5-day incubation period, the plates are read using ATPlite (50 uL added per well), which quantifies the amount of ATP (a measure of cell health) present in each well. Assay plates are read using the Envision luminometer. […] EC50 ranges are as follows: A<0.2 μM; B≥0.2 μM.

Assay [2] concerns rHMPV-GFP (recombinant HMPV CAN97-83, MPV-GFP1). The assay is described as follows: HMPV antiviral assay (eGFP fluorescence in Vero E6 cells). The format is cell-based. Conditions: read-out: rHMPV-GFP EC50. The procedure: HMPV antiviral activity was evaluated using a recombinant version of HMPV CAN97-83 engineered to contain the coding sequence for enhanced green fluorescence protein (eGFP) in the 3′ end of the virus genome (MPV-GFP1, ViraTree). Vero E6 cells (ATCC #CCL-7) were seeded at a density of 12,000 cells/100 μL/well into 96-well cell plates (VENDOR) one day prior to the assay. On the day of screening, the cell culture medium was aspirated from the wells and cells were washed twice with serum-free Eagle's Modified Essential Medium (EMEM, ATCC #) containing 1% penicillin-streptomycin (Invitrogen) (SF-EMEM). Cell washes were performed by dispensing 100 μL SF-EMEM per well and immediately aspirating the wash medium from the well. Following the second wash step, serum-free OptiMEM (Invitrogen, Cat No.) (SF-OptiMEM) containing 0.5 μg/mL TPCK-Trypsin (VENDOR) and 1% penicillin-streptomycin was added to the cells at 50 μL/well. Compounds were added into the 96-well plates using a JANUS automated liquid handling system (VENDOR). Compounds were initially diluted 1:50 into an intermediate 96-well plate containing SF-OptiMEM prior to transfer to the assay plate (25 μL/well). Each of the test compounds was tested in duplicate wells at final concentrations starting from 8 μM or 2 μM using ½ stepwise dilutions for a total of 8 points. Virus infection was performed by preparing a working stock of MPV-GFP1 at a multiplicity of infection (MOI) equal to 0.05/25 μL and aliquoting 25 μL of virus inoculum to the compound and positive control wells. SF-OptiMEM was added (25 μL/well) to the appropriate wells to serve as a virus-free negative control for the assay. The final DMSO concentration of all wells is 0.5%. Plates were incubated at 32° C., 5% CO2 for 5 days. After 5 days incubation, eGFP fluorescence intensity was measured at […] using a Spectramax i3X plate reader (VENDOR). Percent viral inhibition was calculated using the following equation: y=[[…]]×100 Where XQ is the fluorescence intensity measured in a well containing recombinant MPV-GFP1-infected, compound-treated cells and XP is the average fluorescence intensity measured in the wells containing untreated cells infected with recombinant virus. EC50 values were then calculated by non-linear regression using a four parameter curve logistic equation. The curve fit model employed was XLFit Dose Response One Site Model 200: y=(A+(B/(1+((x/C)^D)))) Where A is the minimum y value, B is the maximum y value, C is the log EC50 value, and D is the slope factor. The EC50 of each compound is listed in Table 2 and EC50 ranges are as follows: A<0.2 μM; B≥0.2 μM.

[3] abbreviates: human respiratory syncytial virus, 120 h.

Each structure is given as a SMILES string. pEC50: −log10 of the molar value. Where two headings read alike, the source gives them in different places.

From patent publication US11420976B2 (priority 2020, dated 2022) come the findings set out here.

For the compound `COc1cc(C(=O)NC[C@](O)(c2cc3c(c(-c4ccc(F)cc4)n2)OC[C@@]3(N)C(F)(F)F)C(F)(F)F)ccc1OC1CC1` [Example 1], the pEC50 in assay [1] (setting [3]) is greater than 6.70; in assay [2] (Vero C1008, 120 h), less than 6.70.

In the case of `COc1cc(C(=O)NC[C@](O)(c2cc3c(c(-c4ccc(F)cc4)n2)OC[C@]3(N)C(F)(F)F)C(F)(F)F)ccc1OC1CC1` [Example 3, N—((S)-2-((S)-3-amino-7-(4-fluorophenyl)-3-(trifluoromethyl)-2,3-dihydrofuro[2,3-c]pyridin-5-yl)-3,3,3-trifluoro-2-hydroxypropyl)-4-cyclopropoxy-3-methoxybenzamide], the pEC50 was greater than 6.70 in assay [1] (setting [3]) and less than 6.70 in assay [2] (Vero C1008, 120 h).

With `COc1cc(C(=O)NC[C@@](O)(c2cc3c(c(-c4ccc(F)cc4)n2)OC[C@]3(N)C(F)(F)F)C(F)(F)F)ccc1OC1CC1` [Example 4, N—((R)-2-((S)-3-amino-7-(4-fluorophenyl)-3-(trifluoromethyl)-2,3-dihydrofuro[2,3-c]pyridin-5-yl)-3,3,3-trifluoro-2-hydroxypropyl)-4-cyclopropoxy-3-methoxybenzamide], the pEC50 was less than 6.70 in assay [1] (setting [3]) and less than 6.70 in assay [2] (Vero C1008, 120 h).

Consider `COc1cc(C(=O)NC[C@](O)(c2cc3c(c(-c4ccc(F)cc4)n2)OC[C@@]3(N)C(F)(F)F)C(F)(F)F)cc2cccnc12` [Example 5, N—((S)-2-((R)-3-amino-7-(4-fluorophenyl)-3-(trifluoromethyl)-2,3-dihydrofuro[2,3-c]pyridin-5-yl)-3,3,3-trifluoro-2-hydroxypropyl)-8-methoxyquinoline-6-carboxamide], for which the pEC50 in assay [1] (setting [3]) was greater than 6.70; in assay [2] (Vero C1008, 120 h), less than 6.70.

With `COc1cc(C(=O)NC[C@](O)(c2cc3c(c(-c4ccc(F)cc4)n2)OC[C@]3(N)C(F)(F)F)C(F)(F)F)cc2cccnc12` [Example 6, N—((S)-2-((S)-3-amino-7-(4-fluorophenyl)-3-(trifluoromethyl)-2,3-dihydrofuro[2,3-c]pyridin-5-yl)-3,3,3-trifluoro-2-hydroxypropyl)-8-methoxyquinoline-6-carboxamide], the pEC50 in assay [1] (setting [3]) was greater than 6.70; in assay [2] (Vero C1008, 120 h), less than 6.70.

`COc1cc(C(=O)NC[C@](C)(O)c2cc3c(c(-c4ccc(F)cc4)n2)OC[C@@]3(N)C(F)(F)F)ccc1OC1CC1` [Example 7, N—((S)-2-((R)-3-amino-7-(4-fluorophenyl)-3-(trifluoromethyl)-2,3-dihydrofuro[2,3-c]pyridin-5-yl)-2-hydroxypropyl)-4-cyclopropoxy-3-methoxybenzamide]: the pEC50 in assay [1] (setting [3]) was greater than 6.70; in assay [2] (Vero C1008, 120 h), greater than 6.70.

Take `COc1cc(C(=O)NC[C@@](O)(CF)c2cc3c(c(-c4ccc(F)cc4)n2)OC[C@@]3(N)C(F)(F)F)ccc1OC1CC1` [Example 8]: the pEC50 in assay [1] is greater than 6.70; in assay [2] (Vero E6 cells, MOI 0.05, 5 days at 32° C., eGFP fluorescence), greater than 6.70.

On to `COc1cc(C(=O)NC[C@](O)(c2cc3c(c(-c4ccc(F)cc4)n2)OC[C@@]3(N)C(F)(F)F)C2CC2)ccc1OC1CC1` [Example 9, N—((S)-2-((R)-3-amino-7-(4-fluorophenyl)-3-(trifluoromethyl)-2,3-dihydrofuro[2,3-c]pyridin-5-yl)-2-cyclopropyl-2-hydroxyethyl)-4-cyclopropoxy-3-methoxybenzamide], for which the pEC50 in assay [1] (setting [3]) was greater than 6.70; in assay [2] (Vero C1008, 120 h), greater than 6.70.

As to `COc1cc(C(=O)NC[C@](O)(c2cc3c(c(-c4ccc(F)cc4)n2)OC[C@@]3(N)C(F)(F)F)C2CC2)cc2cccnc12` [Example 10], the pEC50 in assay [1] (setting [3]) is greater than 6.70; in assay [2] (Vero C1008, 120 h), less than 6.70.

For the compound `N[C@@]1(C(F)(F)F)COc2c1cc([C@@](O)(CNC(=O)c1cc(OC3CC3)c3ncccc3c1)C1CC1)nc2-c1ccc(F)cc1` [Example 11, N—((S)-2-((R)-3-amino-7-(4-fluorophenyl)-3-(trifluoromethyl)-2,3-dihydrofuro[2,3-c]pyridin-5-yl)-2-cyclopropyl-2-hydroxyethyl)-8-cyclopropoxyquinoline-6-carboxamide], the negative-log EC50 (pEC50) in assay [1] (setting [3]) is greater than 6.70; in assay [2] (Vero C1008, 120 h) it was less than 6.70.

Consider `COc1cc(C(=O)NC[C@](O)(c2cc3c(c(-c4ccc(F)cc4)n2)OC[C@@]3(N)C(F)(F)F)C2CC2)cc2cn(C)nc12` [Example 55, N—((S)-2-((R)-3-amino-7-(4-fluorophenyl)-3-(trifluoromethyl)-2,3-dihydrofuro[2,3-c]pyridin-5-yl)-2-cyclopropyl-2-hydroxyethyl)-7-methoxy-2-methyl-2H-indazole-5-carboxamide], for which the negative-log EC50 (pEC50) in assay [1] (setting [3]) was greater than 6.70.

For the compound `C[C@](O)(CNC(=O)c1cc(OC2CC2)c2ncccc2c1)c1cc2c(c(-c3ccc(F)c(Cl)c3)n1)OC[C@@]2(N)C(F)(F)F` [Example 56], the pEC50 in assay [1] (setting [3]) is less than 6.70.

As for `COc1cc(C(=O)NC[C@](O)(c2cc3c(c(-c4ccc(F)cc4)n2)OC[C@@]3(N)C(F)(F)F)C2COC2)ccc1OC1CC1` [Example 57], the negative logarithm of the EC50 (pEC50) in assay [1] (setting [3]) is less than 6.70.

As to `N[C@@]1(C(F)(F)F)COc2c1cc([C@@](O)(CNC(=O)c1cc(OC3CC3)c3ncccc3c1)C1COC1)nc2-c1ccc(F)cc1` [Example 58], the negative-log EC50 (pEC50) in assay [1] (setting [3]) is less than 6.70.

For `N[C@@]1(C(F)(F)F)COc2c1cc([C@](O)(CO)CNC(=O)c1cc(OC3CC3)c3ncccc3c1)nc2-c1ccc(F)cc1` [Example 59], the pEC50 in assay [1] (setting [3]) was less than 6.70.

On to `N[C@@]1(C(F)(F)F)COc2c1cc([C@@](O)(CNC(=O)c1cc(OC3CC3)c3c(ccc[n+]3[O-])c1)C1CC1)nc2-c1ccc(F)cc1` [Example 59b], for which, in assay [1] (setting [3]), the pEC50 was less than 6.70.

In the case of `N[C@@]1(C(F)(F)F)COc2c1cc([C@@](O)(CNC(=O)c1cc(OC3CC3)c3[nH]c(=O)ccc3c1)C1CC1)nc2-c1ccc(F)cc1` [Example 59c], in assay [1] (setting [3]), the pEC50 was less than 6.70.

Turning to `N[C@@]1(C(F)(F)F)COc2c1cc([C@@](O)(CNC(=O)c1cc(OC3CC3)c3nc(Cl)ccc3c1)C1CC1)nc2-c1ccc(F)cc1` [Example 59d], in assay [1] (setting [3]), the pEC50 is greater than 6.70.

Regarding `Cc1ccc2cc(C(=O)NC[C@](O)(c3cc4c(c(-c5ccc(F)cc5)n3)OC[C@@]4(N)C(F)(F)F)C3CC3)cc(OC3CC3)c2n1` [Example 59e], in assay [1] (setting [3]), the pEC50 is greater than 6.70.

In the case of `Cn1cc2cc(C(=O)NC[C@](O)(c3cc4c(c(-c5ccc(F)cc5)n3)OC[C@@]4(N)C(F)(F)F)C3CC3)cc(F)c2n1` [Example 64], the pEC50 in assay [1] (setting [3]) is greater than 6.70.
